According to patent US20220018828A1, “METHODS AND KIT FOR ASSAYING LYTIC POTENTIAL OF IMMUNE EFFECTOR CELLS” (INSERM (INSTITUT NATIONAL DE LA SANTÉ ET LA RECHERCHE …, priority 2018, published 2022):

System: melanoma cells (D10)
Test: Membrane turnover assay (FM1-43 uptake by FACS in CTL/target cell conjugates)
Assay type: cell-based, human
Settings: D10 cells loaded with antigenic peptide, pretreated 2 h with 50 μM BAPTA-AM, alone or after 5 min conjugation with CTL; compared with untreated cells
Experimental: Loading of target cells: Target cells were left unpulsed or pulsed with 10 μM antigenic peptide during 2 h at 37° C./5% CO2. Cells were washed three times, re-suspended at 15×10^3 to 30×10^3 cells in 25 μl RPMI/5% FCS/HEPES and transferred to a 96-well U-bottom plate.
In some experiments, D10 cells were pretreated (2 h) or not with 50 μM BAPTA-AM (ThermoFisher Scientific).
CTL staining: CTL were stained with 10 μM CellTrace Violet (CTV, ThermoFisher Scientific) for 30 min at 37° C./5% CO2, washed three times and re-suspended at 30×10^3 to 60×10^3 cells per 25 μl RPMI/5% FCS/HEPES.
Conjugation of CTL and target cells: 25 μl of CTL (previously stained with CTV) were added in wells containing pulsed or unpulsed target cells at 2:1 CTL/target cell ratio. Target cells were previously added to three 96-U-bottom plates (one plate per time point: 2, 5 or 15 minutes). A pre-diluted solution of FM1-43 (ThermoFisher Scientific) was prepared at 20 μg/ml. 50 μl of this solution were added to wells containing in 50 μl the cells of interest to have a final concentration of 10 μg/ml. The FM1-43 solution was added to wells at the same time of CTL. Cells were pelleted during 1 minute at 455 g and incubated at 37° C./5% CO2 for 2, 5 or 15 minutes.
At the end of the incubation time, 100 μl cold FACS buffer (PBS 1% FBS 1% HS 0.1% azide) supplemented with 0.5 mM EDTA were added to each well on ice. […]

## CC(=O)OCOC(=O)CN(CC(=O)OCOC(C)=O)c1ccccc1OCCOc1ccccc1N(CC(=O)OCOC(C)=O)CC(=O)OCOC(C)=O [BAPTA-AM]
  FM1-43 uptake (fluorescence intensity) in melanoma cells: decrease of FM1-43 uptake
